Read-outs that look alike come from different tables or passages of the source.

Experiment [1] has as its system female Lewis rats. In words: In situ isometric hindlimb force in anaesthetised rats under partial neuromuscular block by Cisatracurium. The class given is in vivo. Conditions: Rattus norvegicus, iv, 80 Hz stimulation, Cisatracurium block, read-out: increase in tetanic force. The protocol: Isometric hindlimb force was measured in 12-week old female Lewis rats in the presence and absence of compound.
Rats were placed under anesthesia with isoflurane (2-4%), intubated and subsequently connected to a micro ventilator (Microvent 1, Hallowell EMC, US). Two stimulation electrodes were inserted through the skin to stimulate the sciatic nerve. A small incision was made proximal to the ankle, to expose the Achilles tendon, which was tied by cotton string, and connected to a force transducer (Fort250, World Precision Instruments) with adjustable position (Vernier control). The Achilles tendon was then cut distal to the attached cotton string. The rat was placed on a heated pad, and to prevent movement artefacts from contraction of the ankle dorsiflexors, the foot was fixated by tape on a footplate.
Muscle contractile properties were assessed by applying an electrical current (under supramaximal voltage conditions) to the nerve and recording the force generated by the muscle. The muscle was stretched until maximal force was obtained, when assessed by 2 Hz stimulation. Isometric force was measured every 30 seconds at 12 Hz (Twitch), 10 pulses, and at every 5 minutes at 80 Hz (Tetanic) for 1 second (80 pulses). This stimulation pattern was employed throughout the experiment, expect in few cases where 80 Hz stimulation was replaced by 12 Hz (10 pulses). […] When the level of neuromuscular inhibition was stable, the test article was injected i.v. at the chosen concentration. The effect of test article was assessed on its ability to increase force generated from the stimulation pattern applied. The effect was assessed in the ability to increase force per se (tetanic, 80 Hz, stimulation), and the ratio between individual twitch peaks (12 Hz stimulation). The effect was monitored for at least 1 hour after injection of test article. In addition, the time from injection of test article to maximal effect on force (both twitch and tetanic) was noted and the time for the effect to disappear (return to baseline), if possible. When appropriate the infusion of neuromuscular blocking agent was ceased, with the stimulation pattern continued, and the return of force to control levels was monitored. Animals were sacrificed by cervical dislocation while still fully sedated.

For experiment [2], the system named is isolated rat soleus muscles. In words: Recovery of nerve-stimulated contractile force in isolated rat soleus nerve-muscle preparation exposed to tubocurarine. Conditions: for activation at 50 µM: 40 min, read-out: Point increase (%) of initial force that was restored. The protocol:
Recovery of force is quantified as the percentage of the force prior to tubocurarine that is recovered by the compound.
The current disclosure relates to compounds that inhibit CIC-1 ion channels and increase muscle excitability and thereby improve muscle function in clinical conditions where muscle activation is failing. Such conditions result in loss of contractile function of skeletal muscle, weakness and excessive fatigue. In this series of experiments the compounds were tested for their ability to restore contractile function of isolated rat muscle when the neuromuscular transmission had been compromised akin to neuromuscular disorders.
Experimentally, soleus muscles from 4-5 wk old rats were isolated with the motor nerve remaining attached. The nerve-muscle preparations were mounted in experimental setups that enabled electrical stimulation of the motor nerve. Stimulation of the motor nerve led to activation of the muscle fibres and ensuing force production that was recorded.
After mounting the nerve-muscle preparation in the experimental setup, the contractile function of the muscle was initially assessed under the control conditions (FIG. 2A). […] The experimental condition mimics the failing neuromuscular transmission in a range of neuromuscular disorders. After addition of tubocurarine the contractile force declined over the next 90 mins to 10-50% of the control force. 50 μM of the test compound was then added and the contractile force recovered despite the continued presence of tubocurarine. To quantify the ability of the compound to restore force the percentage of the initial force that was restored was determined after 40 mins of compound exposure (FIG. 2B) and the point increase is reported in Table 3.

The target of experiment [3] is T1, CIC-1 ion channel (Rattus norvegicus, UniProt P35524).
T1 construct: from tissue; host or cells: intact soleus muscle of 12-14 week old Wistar rats
T1 sequence (P35524 1-994): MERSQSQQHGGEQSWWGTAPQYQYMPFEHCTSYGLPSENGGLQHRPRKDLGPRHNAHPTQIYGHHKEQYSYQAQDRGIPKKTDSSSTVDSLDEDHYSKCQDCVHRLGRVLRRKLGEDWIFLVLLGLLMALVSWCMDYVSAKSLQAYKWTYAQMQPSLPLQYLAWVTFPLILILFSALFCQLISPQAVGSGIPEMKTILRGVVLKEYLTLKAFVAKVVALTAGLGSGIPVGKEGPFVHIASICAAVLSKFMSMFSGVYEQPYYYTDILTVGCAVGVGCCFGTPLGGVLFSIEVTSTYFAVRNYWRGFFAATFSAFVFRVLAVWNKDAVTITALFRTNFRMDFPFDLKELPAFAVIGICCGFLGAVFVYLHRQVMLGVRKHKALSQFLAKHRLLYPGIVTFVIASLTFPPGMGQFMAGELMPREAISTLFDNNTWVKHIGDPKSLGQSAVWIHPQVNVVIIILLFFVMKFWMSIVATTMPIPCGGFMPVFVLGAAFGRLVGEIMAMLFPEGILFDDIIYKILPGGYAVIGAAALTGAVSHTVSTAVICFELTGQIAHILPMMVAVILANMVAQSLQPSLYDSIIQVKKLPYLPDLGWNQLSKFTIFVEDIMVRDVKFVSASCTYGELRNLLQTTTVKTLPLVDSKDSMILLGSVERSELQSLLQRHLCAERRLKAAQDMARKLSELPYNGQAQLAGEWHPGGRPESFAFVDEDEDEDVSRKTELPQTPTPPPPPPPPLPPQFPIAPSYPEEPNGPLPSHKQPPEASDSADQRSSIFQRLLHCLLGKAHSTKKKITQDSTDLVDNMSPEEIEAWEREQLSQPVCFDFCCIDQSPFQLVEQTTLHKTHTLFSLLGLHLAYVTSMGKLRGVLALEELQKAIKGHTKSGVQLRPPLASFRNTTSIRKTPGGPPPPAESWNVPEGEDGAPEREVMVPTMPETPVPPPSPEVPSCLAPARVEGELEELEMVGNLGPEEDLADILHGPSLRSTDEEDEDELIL
In words: Electrophysiological measurement (Gm, three micro-electrode technique) of compound inhibition of CIC-1 in rat soleus muscle fibres. The class given is cell-based. The following applies: whole rat soleus muscle, Gm at four increasing concentrations, approx. 30° C., mean ± spread.

Setting [4] is: 50 μM test compound, after 40 mins exposure, 115 nM tubocurarine for 90 mins, rat soleus.

`C[C@H](Oc1ccc(Br)cc1C(C)(F)F)C(=O)O` [Compound A-4, (2S)-2-[4-bromo-2-(1,1-difluoroethyl)phenoxy]propanoic acid]: in experiment [1] (21.6 mg/kg i.v.), the change in vivo at 21.6 mg/kg was 34%. For the same compound, in experiment [2] (setting [4]), the activation at 50 µM was 34%.
Consider `CCC(F)(F)c1cc(Br)ccc1OCC(=O)O` [Compound A-6, 2-[4-bromo-2-(1,1-difluoropropyl)phenoxy]acetic acid], for which the EC50 in experiment [3] came to 7500 ± 2900 nM. The activation at 50 µM in experiment [2] (setting [4]) came out at 35%.
`CCC(F)(F)c1cc(Br)ccc1O[C@@H](CF)C(=O)O` [Compound A-11, (2R)-2-[4-bromo-2-(1,1-difluoropropyl)phenoxy]-3-fluoropropanoic acid] returned an EC50 in experiment [3] of 1600 ± 200 nM. For the same compound, the change in vivo at 17.6 mg/kg in experiment [1] (17.6 mg/kg i.v.) worked out at 44%.
On to `CC(F)(F)c1cc(Br)ccc1O[C@@H](CF)C(=O)O` [Compound A-16, (2R)-2-[4-bromo-2-(1,1-difluoroethyl)phenoxy]-3-fluoropropanoic acid], for which, in experiment [3], the concentration for a half-maximal effect (EC50) came out at 3200 ± 800 nM. For the same compound, the change in vivo at 22.9 mg/kg in experiment [1] (22.9 mg/kg i.v.) is 46%.
In the case of `CCC(F)(F)c1cc(Br)ccc1O[C@@H](CCl)C(=O)O` [Compound A-17, (2R)-2-[4-bromo-2-(1,1-difluoropropyl)phenoxy]-3-chloropropanoic acid], the activation at 50 µM in experiment [2] (setting [4]) was 48%.
Take `C#CC[C@H](Oc1ccc(Br)cc1C(F)(F)CC)C(=O)O` [Compound A-18, (2S)-2-[4-bromo-2-(1,1-difluoropropyl)phenoxy]pent-4-ynoic acid]: the EC50 in experiment [3] is 4800 ± 1100 nM. Moreover, the activation at 50 µM in experiment [2] (setting [4]) came to 31%.
Regarding `C#CC[C@H](Oc1ccc(Cl)cc1C(C)(F)F)C(=O)O` [Compound A-19, (2S)-2-[4-chloro-2-(1,1-difluoroethyl)phenoxy]pent-4-ynoic acid], the activation at 50 µM in experiment [2] (setting [4]) turned out to be 27%.
In experiment [3], `CCC(F)(F)c1cc(I)ccc1O[C@@H](C)C(=O)O` [Compound A-20, (2S)-2-[2-(1,1-difluoropropyl)-4-iodophenoxy]propanoic acid] showed an EC50 of 1900 nM. Moreover, the activation at 50 µM in experiment [2] (setting [4]) was determined as 44%.
`CCC(F)(F)c1cc(Br)c(F)cc1O[C@@H](C)C(=O)O` [Compound A-24, (2S)-2-[4-bromo-2-(1,1-difluoropropyl)-5-fluorophenoxy]propanoic acid]: the EC50 in experiment [3] was found to be 900 ± 200 nM.
Still for that read-out and setting: the same measure for `CCC(F)(F)c1cc(Br)c(F)cc1O[C@@H](CF)C(=O)O` [Compound A-34, (2R)-2-[4-bromo-2-(1,1-difluoropropyl)-5-fluorophenoxy]-3-fluoropropanoic acid]: 1100 ± 200 nM.
`C=Cc1ccc(O[C@@H](C)C(=O)O)c(C(F)(F)CC)c1` [Compound A-35, (2S)-2-[2-(1,1-difluoropropyl)-4-ethenylphenoxy]propanoic acid]: the activation at 50 µM in experiment [2] (setting [4]) stood at 20%.
Take `CC(C)C(F)(F)c1cc(Br)ccc1OCC(=O)O` [Compound A-38, 2-[4-bromo-2-(1,1-difluoro-2-methylpropyl)phenoxy]acetic acid]: in experiment [3], a half-maximal effect (EC50) was put at 7400 nM.
As for `CCC(F)(F)c1cc(Cl)c(F)cc1OCC(=O)O` [Compound A-39, 2-[4-chloro-2-(1,1-difluoropropyl)-5-fluorophenoxy]acetic acid], the EC50 in experiment [3] was found to be 7900 ± 3100 nM. The activation at 50 µM in experiment [2] (Rattus norvegicus) worked out at 37%.
In experiment [3], `CCC(F)(F)c1cc(Cl)c(F)cc1O[C@@H](CF)C(=O)O` [Compound A-41, (2R)-2-[4-chloro-2-(1,1-difluoropropyl)-5-fluorophenoxy]-3-fluoropropanoic acid] had an EC50 of 1100 ± 400 nM.
As to `CCC(F)(F)c1cc(Cl)c(Cl)cc1O[C@@H](C)C(=O)O` [Compound A-42, (2S)-2-[4,5-dichloro-2-(1,1-difluoropropyl)phenoxy]propanoic acid], the EC50 in experiment [3] worked out at 2500 ± 300 nM. Also, the activation at 50 µM in experiment [2] (Rattus norvegicus) was found to be 30%.
As to `CC(F)(F)c1cc(Br)c(F)cc1O[C@@H](CF)C(=O)O` [Compound A-43, (2R)-2-[4-bromo-2-(1,1-difluoroethyl)-5-fluorophenoxy]-3-fluoropropanoic acid], in experiment [3], the 50% effective concentration (EC50) was found to be 2900 ± 900 nM.
Consider `CC(F)(F)c1cc(Cl)c(Cl)cc1O[C@@H](CF)C(=O)O` [Compound A-44, (2R)-2-[4,5-dichloro-2-(1,1-difluoroethyl)phenoxy]-3-fluoropropanoic acid], for which the activation at 50 µM in experiment [2] (setting [4]) was 24%.
In the case of `C=Cc1cc(C(F)(F)CC)c(O[C@@H](C)C(=O)O)cc1F` [Compound A-47, (2S)-2-[2-(1,1-difluoropropyl)-4-ethenyl-5-fluorophenoxy]propanoic acid], the activation at 50 µM in experiment [2] (setting [4]) was 31%.
`CC[C@H](Oc1cc(F)c(Br)cc1C(F)(F)CC)C(=O)O` [Compound A-48, (2S)-2-[4-bromo-2-(1,1-difluoropropyl)-5-fluorophenoxy]butanoic acid]: in experiment [3], a half-maximal response (EC50) required 2000 nM. That is a single-digit micromolar value.
As for `CC[C@H](Oc1cc(F)c(Cl)cc1C(F)(F)CC)C(=O)O` [Compound A-49, (2S)-2-[4-chloro-2-(1,1-difluoropropyl)-5-fluorophenoxy]butanoic acid], the activation at 50 µM in experiment [2] (setting [4]) was 24%.
The same measure, in the same setting: the same measure for `CCC(F)(F)c1cc([N+](=O)[O-])ccc1O[C@@H](C)C(=O)O` [Compound A-51, (2S)-2-[2-(1,1-difluoropropyl)-4-nitrophenoxy]propanoic acid]: 37%.
On the same count and under the same terms, for `CCC(F)(F)c1cc(F)c(F)cc1O[C@@H](CF)C(=O)O` [Compound A-54, (2R)-2-[2-(1,1-difluoropropyl)-4,5-difluorophenoxy]-3-fluoropropanoic acid] the value was 36%.
Turning to “(2S)-2-[4-bromo-2-(1,1-difluoropropyl)(3,5,6-^2H3)phenoxy]propanoic acid [Compound A-30]”, the “Point increase (%) of initial force that was restored” value in experiment [2] (setting [4]) stood at 44%.
“(2S)-2-[4-bromo-2-(1,1-difluoropropyl)phenoxy](2-^2H)propanoic acid [Compound A-21]” showed an EC50 in experiment [3] of 2600 nM. Besides, the “Point increase (%) of initial force that was restored” value in experiment [2] (setting [4]) turned out to be 44%.

For orientation: EC50 means the concentration giving half of the maximal effect.

Source of the values: patent US12415771B2, “Compounds for the treatment of neuromuscular disorders” (NMD PHARMA A/S, priority 2019, dated 2025).
